Test results reported in patent US20250361253A1, “STING AGONIST COMPOUNDS” (Sutro Biopharma, Inc., priority 2022, published 2025).

Legend:
hSTING-R232 = biological target: T1, hSTING-R232 (Homo sapiens, UniProt Q86WV6, H232R); assay: ISG reporter induction in 293-Dual hSTING-R232 reporter cells (QUANTI-Blue); type: cell-based; details: 293-Dual hSTING-R232 cells, overnight incubation
T1 construct: host or cells: 293-Dual (HEK293-derived) reporter cells
Experimental: (§1) Certain STING compounds of the disclosure were evaluated in an in vitro cell based assay.
(§2) 293-Dual hSTING-R232 and mSTING cells (Invivogen) were seeded at 25,000 cells/well (50 ul) and co-cultured with STING agonists (2× concentration, 50 ul) in clear, half-area, 96-well polystyrene plates. Cells and test samples were prepared in DMEM supplemented with 10% FBS, Glutamax, and PenStrep. After overnight incubation at 37 C in a CO2 incubator, 20 ul of supernatant was added to QUANTI-Blue detection reagent (Invivogen). After one hour incubation at 37 C, plates were read at 640/650 nm on EnVision plate reader (PerkinElmer). OD values were plotted by log(agonist) vs. response, variable slope, four parameter curve fit (Log transform) using GraphPad Prism software to determine EC50 values.

mSTING = biological target: T2, mSTING (Mus musculus, UniProt Q3TBT3); assay: ISG reporter induction in 293-Dual mSTING reporter cells (QUANTI-Blue); type: cell-based; details: 293-Dual mSTING cells, overnight incubation
T2 construct: host or cells: 293-Dual (HEK293-derived) reporter cells
T2 sequence (Q3TBT3 1-378): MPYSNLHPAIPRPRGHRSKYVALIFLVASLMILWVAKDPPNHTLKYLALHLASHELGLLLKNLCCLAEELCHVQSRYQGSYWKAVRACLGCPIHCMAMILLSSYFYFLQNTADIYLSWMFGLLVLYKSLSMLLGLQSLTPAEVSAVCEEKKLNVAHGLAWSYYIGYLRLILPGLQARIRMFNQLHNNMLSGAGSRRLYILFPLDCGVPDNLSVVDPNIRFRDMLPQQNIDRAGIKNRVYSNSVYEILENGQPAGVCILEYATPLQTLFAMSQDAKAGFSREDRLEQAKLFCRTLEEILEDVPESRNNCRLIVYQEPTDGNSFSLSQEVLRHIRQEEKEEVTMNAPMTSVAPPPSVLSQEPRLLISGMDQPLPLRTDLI
Experimental: as §1, §2

hSTING WT [1] = biological target: T3, hSTING WT (Homo sapiens, UniProt Q86WV6); assay: Thermal shift assay (DSF); type: binding; parameters: unit not given here; details: compound at 3.12 uM
Source text: Thermal shift assay experimental methods were followed based on the published methods described in Ramanjulu et al. Nature, 2018, 564, 439.

hSTING WT [2] = biological target: T3, hSTING WT; assay: Surface plasmon resonance assay; type: binding; details: read-out: hSTING WT SPR (Kd)
Experimental: Surface plasmon resonance assay experimental methods were followed based on the published methods described in Pan et al., Science, 2020 369, eaba6098. (“A” means EC50≤20 nM).

T3 sequence (Q86WV6 155-341 H232R limits assumed): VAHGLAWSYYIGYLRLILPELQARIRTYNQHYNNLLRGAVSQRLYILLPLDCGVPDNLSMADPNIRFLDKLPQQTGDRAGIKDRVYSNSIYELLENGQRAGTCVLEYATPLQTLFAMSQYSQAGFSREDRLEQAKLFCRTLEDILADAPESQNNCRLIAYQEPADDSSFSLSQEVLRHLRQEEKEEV
T1 sequence (Q86WV6 whole entry H232R): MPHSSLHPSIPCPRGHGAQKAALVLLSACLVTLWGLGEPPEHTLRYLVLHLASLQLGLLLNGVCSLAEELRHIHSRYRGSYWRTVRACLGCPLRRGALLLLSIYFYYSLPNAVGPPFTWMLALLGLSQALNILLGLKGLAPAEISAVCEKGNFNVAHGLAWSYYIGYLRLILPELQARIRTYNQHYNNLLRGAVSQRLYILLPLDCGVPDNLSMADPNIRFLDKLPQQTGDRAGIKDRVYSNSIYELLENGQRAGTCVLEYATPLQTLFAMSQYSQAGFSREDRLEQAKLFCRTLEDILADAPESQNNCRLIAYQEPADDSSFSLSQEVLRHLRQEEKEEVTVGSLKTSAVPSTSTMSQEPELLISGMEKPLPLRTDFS

SMILES: COc1cc2sc(C(=O)CCC(=O)O)cc2c(F)c1OCCCOc1c(OC)cc2sc(C(=O)CCP(=O)(O)O)cc2c1F [Compound 7, 4-(4-Fluoro-5-(3-((4-fluoro-6-methoxy-2-(3-phosphonopropanoyl)benzo[b]thiophen-5-yl)oxy)propoxy)-6-methoxybenzo[b]thiophen-2-yl)-4-oxobutanoic acid]
- EC50 (hSTING-R232): ≤ 50 nM
- EC50 (mSTING): ≤ 50 nM
- hSTING WT DSF (delta TmD @ 3.12 uM) (hSTING WT [1]): 20
- Kd (hSTING WT [2]): ≤ 20 nM
